{"source": "patent US10517889B2", "about": "“Modulators of SMAD7 expression” (Ionis Pharmaceuticals, Inc., priority 2017, dated 2019)", "note": "Strand notation (5' to 3'): a small letter for the sugar, then the base; units joined by * are phosphorothioate-linked, units joined directly phosphodiester-linked; [ ] holds rarer units or linkages, { } end groups; capitals alone tell only the bases. k = constrained ethyl (cEt); [5mC] = 5-methylcytosine; d = 2'-deoxy (DNA)", "data": [{"test_system": "human SMAD7 mRNA", "experiment": "Antisense inhibition of human SMAD7 mRNA expression in Hep3B cells by 3-10-3 cEt gapmers, 10,000 nM, electroporation (Example 2)", "type": "cell-based", "details": "Hep3B cells, 10,000 nM antisense oligonucleotide, electroporation, approximately 24 hours, RT-PCR primer probe set RTS5062, relative to untreated control cells", "method_in_brief": "(§1)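 Hep3B cells (20,000 per well) were electroporated with 10,000 nM 16-mer 3-10-3 cEt gapmer (phosphorothioate, 5-methylcytosine). After about 24 h, SMAD7 mRNA was quantified by qRT-PCR with primer probe set RTS5062, normalised to RIBOGREEN total RNA, and expressed as percent inhibition versus untreated cells.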", "units": {"% Inhibition": "%"}, "values": [{"substance": "799840 (antisense kA*kG*kG*dG*dA*dA*dG*dT*dT*dA*dG*dT*dG*kT*kT*kT) [compound 799840]", "% Inhibition": 22}, {"substance": "800012 (kG*kA*kG*dG*dA*d[5mC]*dT*dT*d[5mC]*dA*dG*d[5mC]*d[5mC]*kT*kG*kT; antisense) [compound 800012]", "% Inhibition": 49}, {"substance": "799874 (k[5mC]*kA*kG*dA*d[5mC]*dT*dG*dG*dA*dA*dA*dA*dG*kT*kT*kA; antisense) [compound 799874]", "% Inhibition": 0}, {"substance": "800095 (antisense kA*kG*kT*dT*dA*d[5mC]*dA*dG*dA*dT*d[5mC]*dT*dT*kT*k[5mC]*kA) [compound 800095]", "% Inhibition": 47}, {"substance": "799978 (k[5mC]*kT*k[5mC]*d[5mC]*dA*d[5mC]*dA*dA*d[5mC]*dG*dG*dA*d[5mC]*kA*kT*k[5mC]; antisense) [compound 799978]", "% Inhibition": 24}]}, {"test_system": "human SMAD7 mRNA", "experiment": "Antisense inhibition of human SMAD7 mRNA expression in Hep3B cells by 3-10-3 cEt gapmers, 10,000 nM, electroporation (Example 2)", "type": "cell-based", "details": "Hep3B cells, electroporation with 10,000 nM antisense oligonucleotide, approximately 24 hours, RTS5062, percent inhibition of SMAD7 mRNA relative to untreated control cells", "method_in_brief": "as §1", "units": {"% Inhibition": "%"}, "values": [{"substance": "799650 (antisense k[5mC]*kA*kG*d[5mC]*dA*dG*dA*d[5mC]*dA*dG*dG*d[5mC]*dA*kA*kA*kA) [compound 799650]", "% Inhibition": 46}, {"substance": "799649 (antisense kA*kA*kA*dT*dG*dA*dA*dA*dG*d[5mC]*d[5mC]*d[5mC]*d[5mC]*k[5mC]*kA*kG) [compound 799649]", "% Inhibition": 53}, {"substance": "799766 (kA*kA*kA*d[5mC]*dA*dA*dA*dG*d[5mC]*dA*d[5mC]*dG*d[5mC]*kT*kA*kA; antisense) [compound 799766]", "% Inhibition": 35}, {"substance": "799317 (antisense kT*kA*kA*dA*dA*dA*d[5mC]*dA*d[5mC]*d[5mC]*dA*dA*dG*kA*kT*k[5mC]) [compound 799317]", "% Inhibition": 0}]}, {"test_system": "human SMAD7 mRNA", "experiment": "Antisense inhibition of human SMAD7 mRNA expression in Hep3B cells by 3-10-3 cEt gapmers, 10,000 nM, electroporation (Example 2)", "type": "cell-based", "details": "Hep3B cells, electroporation with 10,000 nM antisense oligonucleotide, approximately 24 hours, SMAD7 mRNA by RT-PCR (RTS5062), relative to untreated control cells", "method_in_brief": "as §1", "units": {"% Inhibition": "%"}, "values": [{"substance": "799329 (kG*kT*kA*dT*dG*d[5mC]*dA*d[5mC]*dA*d[5mC]*dT*d[5mC]*dT*k[5mC]*k[5mC]*k[5mC]; antisense) [compound 799329]", "% Inhibition": 0}, {"substance": "798903 (kA*kA*kG*dA*dT*dG*dA*d[5mC]*d[5mC]*dT*d[5mC]*dT*dA*kG*k[5mC]*k[5mC]; antisense) [compound 798903]", "% Inhibition": 48}, {"substance": "799376 (antisense kG*k[5mC]*kA*dG*dG*dA*dG*dG*dA*dA*d[5mC]*d[5mC]*dT*kA*k[5mC]*k[5mC]) [compound 799376]", "% Inhibition": 45}, {"substance": "800060 (antisense k[5mC]*k[5mC]*k[5mC]*d[5mC]*dA*dA*dA*dA*dG*d[5mC]*dT*d[5mC]*d[5mC]*kA*k[5mC]*kA) [compound 800060]", "% Inhibition": 5}]}, {"test_system": "human SMAD7 mRNA", "experiment": "Antisense inhibition of human SMAD7 mRNA expression in Hep3B cells by 3-10-3 cEt gapmers, 10,000 nM, electroporation (Example 2)", "type": "cell-based", "details": "Hep3B cells, electroporation with 10,000 nM antisense oligonucleotide, approximately 24 hours, primer probe set RTS5062, relative to untreated control cells", "method_in_brief": "as §1", "units": {"% inhibition of SMAD7 mRNA expression": "%"}, "values": [{"substance": "799124 (antisense k[5mC]*k[5mC]*kG*d[5mC]*dT*dT*dG*d[5mC]*dT*dG*dG*d[5mC]*d[5mC]*kT*kA*kA) [compound 799124]", "% inhibition of SMAD7 mRNA expression": 17}, {"substance": "799063 (antisense kT*kG*kG*dT*dT*d[5mC]*dT*dG*dG*dT*dT*d[5mC]*dG*kG*k[5mC]*k[5mC]) [compound 799063]", "% inhibition of SMAD7 mRNA expression": 9}, {"substance": "799109 (antisense k[5mC]*kA*kG*dT*dG*d[5mC]*dT*dG*dA*dG*d[5mC]*dT*dG*kG*kT*kT) [compound 799109]", "% inhibition of SMAD7 mRNA expression": 48}, {"substance": "798971 (antisense kG*kG*kT*dG*dT*d[5mC]*d[5mC]*dT*dG*d[5mC]*d[5mC]*dG*dA*kT*k[5mC]*kA) [compound 798971]", "% inhibition of SMAD7 mRNA expression": 53}, {"substance": "799172 (antisense kA*kA*k[5mC]*dA*dT*dG*d[5mC]*dT*d[5mC]*dA*dT*dT*dG*kA*kG*k[5mC]) [compound 799172]", "% inhibition of SMAD7 mRNA expression": 4}]}, {"test_system": "human SMAD7 mRNA", "experiment": "Antisense inhibition of human SMAD7 mRNA expression in Hep3B cells by 3-10-3 cEt gapmers, 10,000 nM, electroporation (Example 2)", "type": "cell-based", "details": "Hep3B cells, electroporation, 10,000 nM antisense oligonucleotide, approximately 24 hours, RTS5062, relative to untreated control cells", "method_in_brief": "as §1", "units": {"% inhibition of SMAD7 mRNA expression": "%"}, "values": [{"substance": "799775 (kA*k[5mC]*kA*d[5mC]*dA*dA*dG*dA*dG*dG*dG*dA*dA*kG*k[5mC]*k[5mC]; antisense) [compound 799775]", "% inhibition of SMAD7 mRNA expression": 22}, {"substance": "799537 (kG*kG*kG*d[5mC]*dA*d[5mC]*d[5mC]*dA*d[5mC]*dA*dA*dT*dG*kT*k[5mC]*kA; antisense) [compound 799537]", "% inhibition of SMAD7 mRNA expression": 3}]}, {"test_system": "human SMAD7 mRNA", "experiment": "Antisense inhibition of human SMAD7 mRNA expression in Hep3B cells by 3-10-3 cEt gapmers, 10,000 nM, electroporation (Example 2)", "type": "cell-based", "details": "Hep3B cells, electroporation, 10,000 nM, approximately 24 hours; 3-10-3 cEt gapmers targeting SEQ ID NO: 3 and 4", "method_in_brief": "as §1", "units": {"% inhibition of SMAD7 mRNA expression": "%"}, "values": [{"substance": "790635 (kG*kG*kA*d[5mC]*dA*dG*dT*d[5mC]*dA*dG*dT*dT*dG*kG*kT*kT; antisense) [compound 790635]", "% inhibition of SMAD7 mRNA expression": 40}]}]}
